“Also recorded” adds a separate entry of the source.
Biological target: T1, hNpr2 (Homo sapiens, UniProt P20594)
T1 sequence (P20594 23-1047): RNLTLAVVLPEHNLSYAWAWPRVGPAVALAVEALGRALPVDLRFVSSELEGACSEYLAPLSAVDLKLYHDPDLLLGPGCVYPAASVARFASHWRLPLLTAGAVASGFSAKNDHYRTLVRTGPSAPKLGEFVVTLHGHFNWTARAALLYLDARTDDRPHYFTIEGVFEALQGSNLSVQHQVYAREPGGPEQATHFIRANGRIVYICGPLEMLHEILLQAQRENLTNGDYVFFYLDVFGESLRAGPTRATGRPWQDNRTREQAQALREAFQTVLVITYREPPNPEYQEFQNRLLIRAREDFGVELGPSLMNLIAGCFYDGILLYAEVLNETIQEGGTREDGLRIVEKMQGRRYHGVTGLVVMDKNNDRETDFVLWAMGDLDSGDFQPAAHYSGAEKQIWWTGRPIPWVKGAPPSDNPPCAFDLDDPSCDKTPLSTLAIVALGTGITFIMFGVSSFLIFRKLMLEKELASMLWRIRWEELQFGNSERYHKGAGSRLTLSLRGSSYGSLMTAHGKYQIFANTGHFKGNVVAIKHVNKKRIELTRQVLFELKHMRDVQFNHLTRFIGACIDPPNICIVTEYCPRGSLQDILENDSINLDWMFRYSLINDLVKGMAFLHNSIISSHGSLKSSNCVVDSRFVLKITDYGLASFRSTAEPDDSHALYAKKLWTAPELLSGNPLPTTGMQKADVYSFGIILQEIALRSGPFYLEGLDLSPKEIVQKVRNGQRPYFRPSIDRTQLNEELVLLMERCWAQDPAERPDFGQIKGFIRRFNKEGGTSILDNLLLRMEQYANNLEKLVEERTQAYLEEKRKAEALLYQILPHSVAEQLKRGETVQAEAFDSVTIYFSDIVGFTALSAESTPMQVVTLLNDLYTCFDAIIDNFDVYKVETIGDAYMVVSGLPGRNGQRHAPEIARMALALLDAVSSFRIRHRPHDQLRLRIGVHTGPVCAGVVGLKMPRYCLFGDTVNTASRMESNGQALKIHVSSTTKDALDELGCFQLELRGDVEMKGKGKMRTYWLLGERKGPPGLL
Assay: Counter-screen, Nppc-stimulated HEK-hNpr2-cGMP-sensor cells
Type: cell-based
Settings: for IC50 / Imax: 1 nM Nppc-stimulated; for Imax: read-out: Imax, HEK-hNpr2-cGMP-sensor cells, −100% = no agonist; for Inhibition of Nppc-induced hNpr2 activity (in words): HEK-hNpr2-cGMP-sensor cells
Source text: In order to identify small molecular compounds that inhibit the Npr1 receptor a high-throughput assay to probe inhibition of the receptor guanylate cyclase Npr1 was developed. The assay was designed taking advantage of Promega's GloSensor™ technology (Promega, Madison, Wis.). This technology involves the expression of a cyclic guanosine monophosphate (cGMP) biosensor, comprised of a firefly luciferase variant that was coupled to the cGMP binding domain of human phosphodiesterase 5A, and loading of cells with a cell-permeable luciferase substrate to monitor cGMP production by Npr1 in real time in live cells. Briefly, human embryonic kidney 293 cells stably expressing the human Npr1 and the pGloSensor™-40F cGMP vector (“pGloSensor™-40F”) were generated. Stimulating these cells with the Npr1 agonists human NppA or NppB, luciferase-induced light production could be detected in a dose-dependent manner. HEK293 cells stably expressing human Npr2 and pGS-40F and cells only expressing pGS-40F were also generated to conduct secondary counter screens. In these cells, NppC or sodium nitroprusside were used to stimulate Npr2 or soluble guanylate cyclase which is endogenously expressed in HEK293 cells, respectively. The Npr2-NppC counter screen was employed to search for agents that minimally effected this agonist-receptor interaction. The Npr2-NppC system was used because the side effects of most drugs occur on related receptors. Npr1 and Npr2 are the most related receptors in sequence and function and there are no additional active receptor subtypes in this family of receptors. The procedure is described in detail below.
Counter-screens were performed with HEK293-hNpr2-cGMP-sensor and HEK293-cGMP-sensor cells. These cells were stimulated with 1 nM NppC or 50 μM sodium nitroprusside, respectively, but otherwise the assay was conducted as described for HEK-hNpr1-cGMP-sensor cells. Pre-agonist controls were the same for all three assays, but normalization of post-agonist data differed between assays. For HEK-hNpr1-cGMP-sensor cells, −100% activity in post-agonist data was defined as described for primary screening, while for HEK-hNpr2-cGMP-sensor and HEK-cGMP-sensor cells, the average signal of DMSO-treated wells with 2% GloSensor™ reagent and the respective agonist was defined as 0% and the average signal of wells without agonist as −100% activity and data were normalized accordingly. Compounds directly interacting with the pGloSensor™-40F reporter system in HEK293 cells stimulated with sodium nitroprusside were eliminated as false positives. Effects of compounds on HEK293 cells stimulated with NppC and stably expressing hNpr2 and pGS-40F were tested for receptor selectivity.

Row | Compound | IC50 | Imax | Inhibition of Nppc-induced hNpr2 activity (in words)
1 | COc1ccccc1-c1n[nH]c2ncc(C(=O)NCc3cccnc3)nc12 [JS-6, 3-(2-methoxyphenyl)-N-(pyridin-3-ylmethyl)-1H-pyrazolo[3,4-b]pyrazine-5-carboxamide] | 6.9 ± 1.1 µM | -102 ± 3% | –
2 | O=C(NCc1cccnc1)c1cnc2[nH]nc(-c3ccccc3)c2n1 [JS-7, 3-phenyl-N-(pyridin-3-ylmethyl)-1H-pyrazolo[3,4-b]pyrazine-5-carboxamide] | 16 ± 1.3 µM | -122 ± 11% | –
3 | Cc1nn2c(c1-c1ccccc1OCc1ccccc1)N(C(=O)Cc1ccc3c(c1)OCO3)CCC2 [JS-8, 2-(benzo[d][1,3]dioxol-5-yl)-1-(3-(2-(benzyloxy)phenyl)-2-methyl-6,7-dihydropyrazolo[1,5-a]pyrimidin-4(5H)-yl)ethan-1-one] | 9.1 ± 1.4 µM | -127 ± 13% | inhibited hNpr2 with similar potency to hNpr1; also recorded: antagonizes natriuretic peptide-induced activation
4 | Cc1nn2c(c1-c1ccccc1Oc1ccccc1)N(C(=O)Cc1ccc3c(c1)OCO3)CCC2 [JS-10, 2-(benzo[d][1,3]dioxol-5-yl)-1-(2-methyl-3-(2-phenoxyphenyl)-6,7-dihydropyrazolo[1,5-a]pyrimidin-4(5H)-yl)ethan-1-one] | 5.4 ± 1.4 µM | -86 ± 5% | –
5 | Cl.O=C1Nc2ccccc2CN(CC2CCCCC2)C12CCNCC2 [JS-1, 4-(cyclohexylmethyl)-4,5-dihydrospiro[benzo[e][1,4]diazepine-3,4′-piperidin]-2(1H)-one hydrochloride] | 7.2 ± 1.3 µM | -106 ± 8% | –
6 | N#Cc1ccccc1CN1CCCC(C(=O)NCc2ccccc2)CCNC(=O)CC1 (stereo not shown) [JS-13, N-benzyl-1-(2-cyanobenzyl)-4-oxo-1,5-diazacycloundecane-8-carboxamide] | 5.9 ± 1.3 µM | -108 ± 8% | –
7 | CCC(CC)c1cc([C@H]2CN3CC[C@H]2C[C@@H]3CNS(=O)(=O)c2cccs2)nc(-c2ccncc2)n1 [JS-3, N-(((2R,4S,5R)-5-(6-(pentan-3-yl)-2-(pyridin-4-yl)pyrimidin-4-yl)quinuclidin-2-yl)methyl)thiophene-2-sulfonamide] | 17 ± 20 µM | -126 ± 23% | –
8 | Cc1nn2c(c1-c1ccccc1OCc1ccccc1)N(C(=O)Cc1ccccn1)CCC2 [JS-9, 1-(3-(2-(benzyloxy)phenyl)-2-methyl-6,7-dihydropyrazolo[1,5-a]pyrimidin-4(5H)-yl)-2-(pyridin-2-yl)ethan-1-one] | 20 ± 16 µM | -102 ± 16% | –
9 | O=C(Cc1ccc(Cl)cc1)N1Cc2ccccc2CC2(CCCN2CC2CCNC2)C1 (stereo not shown) [JS-2, 2-(4-chlorophenyl)-1-(1′-(pyrrolidin-3-ylmethyl)-1,5-dihydrospiro[benzo[c]azepine-4,2′-pyrrolidin]-2(3H)-yl)ethan-1-one] | 6.4 ± 1.1 µM | -88 ± 5% | –
10 | Cc1noc(C)c1-c1cc(-c2ccccc2Oc2ccccc2)cn2cncc12 [JS-5, 3,5-dimethyl-4-(6-(2-phenoxyphenyl)imidazo[1,5-a]pyridin-8-yl)isoxazole] | 12 ± 1.1 µM | -97 ± 4% | inhibited hNpr2 with similar potency to hNpr1; also recorded: antagonizes natriuretic peptide-induced activation
11 | COc1cc(CN2CCC(C)(NC(C)=O)CC2)cc(-c2ccncc2)c1 [JS-4, N-(1-(3-methoxy-5-(pyridin-4-yl)benzyl)-4-methylpiperidin-4-yl)acetamide] | 11 ± 1.2 µM | -100 ± 5% | –
12 | COc1ccc(C2(C(=O)N3CCC4(CC3)c3nccn3-c3ccccc3CN4C)CC2)cc1 [JS-12, (1-(4-methoxyphenyl)cyclopropyl)(5-methyl-5,6-dihydrospiro[benzo[f]imidazo[1,2-a][1,4]diazepine-4,4′-piperidin]-1′-yl)methanone] | 5.7 ± 1.1 µM | -96 ± 4% | –
13 | Cc1cc(CNC(=O)c2ccc3c(c2)n(CC2CC2)c(=O)n3C2CCCCC2)on1 [JS-11, 1-cyclohexyl-3-(cyclopropylmethyl)-N-((3-methylisoxazol-5-yl)methyl)-2-oxo-2,3-dihydro-1H-benzo[d]imidazole-5-carboxamide] | 5 ± 1.1 µM | -97 ± 4% | inhibited hNpr2 with similar potency to hNpr1; also recorded: antagonizes natriuretic peptide-induced activation
14 | CN(Cc1ccccc1)C(=O)c1cn2ccnc(-c3ccccc3)c2n1 [JS-14, N-benzyl-N-methyl-8-phenylimidazo[1,2-a]pyrazine-2-carboxamide] | 20 ± 1.1 µM | -91 ± 8% | –

Source: patent US11324725B2, “Compositions and methods for the inhibition of pruritus” (The United States of America, as represented by the …, priority 2017, dated 2022)
